Experiment [1] has as its target full-length ATR (Homo sapiens (Human), UniProt Q13535). Kind of experiment: ATR Inhibition Assay (radioactive-phosphate incorporation). In kind it is biochemical. The note with it: ATR Inhibition Ki(app); 10 μM ATP, 800 μM target peptide, 5 nM full-length ATR, 25° C. As for the experimental part: Compounds were screened for their ability to inhibit ATR kinase using a radioactive-phosphate incorporation assay. Assays were carried out in a mixture of 50 mM Tris/HCl (pH 7.5), 10 mM MgCl2 and 1 mM DTT. Final substrate concentrations were 10 μM [γ-33P]ATP (3 mCi 33P ATP/mmol ATP, Perkin Elmer) and 800 μM target peptide ([…]).
Assays were carried out at 25° C. in the presence of 5 nM full-length ATR. An assay stock buffer solution was prepared containing all of the reagents listed above, with the exception of ATP and the test compound of interest. 13.5 μL of the stock solution was placed in a 96 well plate followed by addition of 2 μL of DMSO stock containing serial dilutions of the test compound (typically starting from a final concentration of 15 μM with 3-fold serial dilutions) in duplicate (final DMSO concentration 7%). The plate was pre-incubated for 10 minutes at 25° C. and the reaction initiated by addition of 15 μL [γ-33P]ATP (final concentration 10 μM).
The reaction was stopped after 24 hours by the addition of 30 μL 0.1 M phosphoric acid containing 2 mM ATP. A multiscreen phosphocellulose filter 96-well plate (Millipore, Cat no. MAPHNOB50) was pretreated with 100 μL 0.2M phosphoric acid prior to the addition of 45 μL of the stopped assay mixture. The plate was washed with 5×200 μL 0.2M phosphoric acid. After drying, 100 μL Optiphase ‘SuperMix’ liquid scintillation cocktail (Perkin Elmer) was added to the well prior to scintillation counting (1450 Microbeta Liquid Scintillation Counter, Wallac).
After removing mean background values for all of the data points, Ki(app) data were calculated from non-linear regression analysis of the initial rate data using the Prism software package (GraphPad Prism version 3.0cx for Macintosh, GraphPad Software, San Diego Calif., USA).
Below is a chart showing the ATR Inhibition Ki values of compounds of the disclosure.

The subject of experiment [2] is HCT116 colorectal cancer cells. As to the kind of experiment: Cisplatin Sensitization Assay (96h cell viability MTS). In kind it is cell-based. The note with it: concentration of compound required to reduce the IC50 of Cisplatin alone by at least 3-fold, 96h MTS. As for the experimental part:
Compounds can be screened for their ability to sensitize HCT116 colorectal cancer cells to Cisplatin using a 96h cell viability (MTS) assay. […] Compounds and Cisplatin are then both added simultaneously to the cell media in 2-fold serial dilutions from a top final concentration of 10 μM as a full matrix of concentrations in a final cell volume of 200 μl, and the cells are then incubated at 37° C. in 5% CO2. After 96h, 40 μl of […] (Promega G358a) is added to each well and the cells are incubated for 1 h at 37° C. in 5% CO2.

Chain of full-length ATR (Q13535 whole entry): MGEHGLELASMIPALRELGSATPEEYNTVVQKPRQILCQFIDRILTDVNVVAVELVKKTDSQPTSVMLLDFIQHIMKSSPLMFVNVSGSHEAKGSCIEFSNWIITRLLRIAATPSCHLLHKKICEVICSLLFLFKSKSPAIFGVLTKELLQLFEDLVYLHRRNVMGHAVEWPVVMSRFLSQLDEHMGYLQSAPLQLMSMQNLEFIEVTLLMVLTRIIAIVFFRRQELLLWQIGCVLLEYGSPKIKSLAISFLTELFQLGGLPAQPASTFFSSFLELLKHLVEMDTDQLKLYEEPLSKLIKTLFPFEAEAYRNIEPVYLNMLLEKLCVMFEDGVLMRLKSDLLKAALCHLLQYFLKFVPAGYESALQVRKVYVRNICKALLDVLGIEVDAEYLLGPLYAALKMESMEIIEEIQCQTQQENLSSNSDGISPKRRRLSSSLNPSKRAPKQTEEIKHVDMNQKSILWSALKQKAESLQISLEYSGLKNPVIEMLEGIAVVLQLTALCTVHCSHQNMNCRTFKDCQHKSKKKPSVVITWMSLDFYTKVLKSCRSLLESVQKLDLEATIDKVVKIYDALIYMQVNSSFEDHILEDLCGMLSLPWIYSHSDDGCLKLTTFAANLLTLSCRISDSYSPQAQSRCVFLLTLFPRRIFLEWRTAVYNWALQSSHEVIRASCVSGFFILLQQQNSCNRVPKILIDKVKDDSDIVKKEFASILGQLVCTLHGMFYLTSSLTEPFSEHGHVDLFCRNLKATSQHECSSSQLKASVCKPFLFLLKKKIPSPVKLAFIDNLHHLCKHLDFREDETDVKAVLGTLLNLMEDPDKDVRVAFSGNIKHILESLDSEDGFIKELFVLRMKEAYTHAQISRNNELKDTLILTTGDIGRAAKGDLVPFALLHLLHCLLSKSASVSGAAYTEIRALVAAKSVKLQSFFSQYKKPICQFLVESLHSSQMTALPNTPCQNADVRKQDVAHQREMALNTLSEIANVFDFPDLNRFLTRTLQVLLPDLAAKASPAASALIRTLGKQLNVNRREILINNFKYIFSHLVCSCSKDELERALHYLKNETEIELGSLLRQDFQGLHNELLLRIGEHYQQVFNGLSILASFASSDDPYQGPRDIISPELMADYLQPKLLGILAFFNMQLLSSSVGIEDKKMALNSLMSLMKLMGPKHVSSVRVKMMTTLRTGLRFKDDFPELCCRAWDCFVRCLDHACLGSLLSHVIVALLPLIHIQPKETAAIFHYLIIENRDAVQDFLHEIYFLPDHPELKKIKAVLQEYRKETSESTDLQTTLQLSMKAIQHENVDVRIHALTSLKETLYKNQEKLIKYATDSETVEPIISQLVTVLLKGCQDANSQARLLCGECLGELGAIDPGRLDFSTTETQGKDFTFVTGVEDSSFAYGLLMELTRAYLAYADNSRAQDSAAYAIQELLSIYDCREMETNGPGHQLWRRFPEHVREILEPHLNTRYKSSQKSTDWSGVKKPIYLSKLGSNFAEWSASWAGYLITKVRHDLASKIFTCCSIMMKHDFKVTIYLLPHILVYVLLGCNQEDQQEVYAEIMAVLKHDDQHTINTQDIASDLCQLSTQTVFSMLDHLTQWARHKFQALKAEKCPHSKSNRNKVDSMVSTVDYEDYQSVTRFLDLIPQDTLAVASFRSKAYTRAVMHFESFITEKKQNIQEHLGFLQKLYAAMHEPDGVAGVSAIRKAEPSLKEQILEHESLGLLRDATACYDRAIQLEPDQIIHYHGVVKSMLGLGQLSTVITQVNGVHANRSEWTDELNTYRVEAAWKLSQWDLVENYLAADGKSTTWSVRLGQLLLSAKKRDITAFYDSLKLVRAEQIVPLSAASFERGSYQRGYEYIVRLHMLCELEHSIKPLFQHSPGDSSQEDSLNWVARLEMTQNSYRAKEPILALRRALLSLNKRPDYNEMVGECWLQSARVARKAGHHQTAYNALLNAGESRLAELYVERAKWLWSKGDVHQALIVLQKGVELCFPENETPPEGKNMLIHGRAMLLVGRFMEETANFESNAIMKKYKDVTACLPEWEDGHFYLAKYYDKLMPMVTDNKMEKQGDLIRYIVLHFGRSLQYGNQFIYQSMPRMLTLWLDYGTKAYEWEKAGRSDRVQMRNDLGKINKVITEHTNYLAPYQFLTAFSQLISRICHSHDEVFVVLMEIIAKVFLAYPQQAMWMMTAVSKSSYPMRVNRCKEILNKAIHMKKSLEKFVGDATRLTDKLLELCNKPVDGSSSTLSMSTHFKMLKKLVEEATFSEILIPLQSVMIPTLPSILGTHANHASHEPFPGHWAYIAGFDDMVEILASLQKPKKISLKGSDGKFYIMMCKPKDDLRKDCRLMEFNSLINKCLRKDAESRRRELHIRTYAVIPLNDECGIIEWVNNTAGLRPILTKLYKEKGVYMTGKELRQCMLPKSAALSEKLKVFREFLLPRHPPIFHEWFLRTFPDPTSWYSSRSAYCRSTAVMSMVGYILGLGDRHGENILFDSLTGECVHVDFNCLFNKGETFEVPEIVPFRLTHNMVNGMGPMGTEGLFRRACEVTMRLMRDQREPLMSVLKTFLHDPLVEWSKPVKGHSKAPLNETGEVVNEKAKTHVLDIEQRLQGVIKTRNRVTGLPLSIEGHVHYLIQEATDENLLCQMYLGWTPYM

Turning to `CNCc1ccc(-c2cc(-c3nc(-c4ccc(=O)n(CC5CC5)c4)cnc3N)on2)cc1` [Compound I-62], the Ki in experiment [1] is at most 5 nM. In experiment [2], the “CP3 shift” value stood at 0.078 µM.
In the same order, the values of `CCNCc1ccc(-c2cc(-c3nc(-c4ccc(=O)n(C(C)C)c4)cnc3N)on2)cc1` [Compound I-63] are at most 5 nM and 0.156 µM.
In the same order, the values of `CNCc1ccc(-c2cc(-c3nc(-c4ccc(=O)n(C(C)C)c4)cnc3N)on2)c(OC)c1` [Compound I-64] are at most 5 nM and 0.078 µM.
In the same order, the values of `CNCc1ccc(-c2cc(-c3nc(-c4ccc(=O)n(CC5(C)CC5)c4)cnc3N)on2)cc1` [Compound I-68] are at most 5 nM and 0.039 µM.
Consider `CNCc1ccc(-c2cc(-c3nc(-c4ccc(=O)n(CC5CC5C)c4)cnc3N)on2)cc1` (stereo not drawn) [Compound I-72], for which, in experiment [1], the Ki was at most 5 nM. Further, the “CP3 shift” value in experiment [2] came out at 0.078 µM.
In the same order, the values of `CNCc1ccc(-c2cc(-c3nc(-c4ccc(=O)n(CCC#N)c4)cnc3N)on2)cc1` [Compound I-73] are at most 5 nM and 0.156 µM.
In the same order, the values of `CCC(Cn1cc(-c2cnc(N)c(-c3cc(-c4ccc(CNC)cc4)no3)n2)ccc1=O)OC` (stereo not drawn) [Compound I-74] are at most 5 nM and 0.078 µM.
Turning to `CC[C@H](C)CCn1cc(-c2cnc(N)c(-c3cc(-c4ccc(CNC)cc4)no3)n2)ccc1=O` [Compound I-77], the Ki in experiment [1] was at most 5 nM. In addition, the “CP3 shift” value in experiment [2] was 0.039 µM.
For `CNCc1ccc(-c2cc(-c3nc(-c4c[nH]c(=O)c(Br)c4)cnc3N)on2)cc1` [Compound I-78] the same measures were at most 5 nM and 0.625 µM.
On to `CNCc1ccc(-c2cc(-c3nc(-c4ccc(=O)n(CC5(CO)CC5)c4)cnc3N)on2)cc1` [Compound I-80], for which the Ki in experiment [1] was at most 5 nM. Moreover, the “CP3 shift” value in experiment [2] came out at 0.078 µM.
For the compound `CCn1cc(-c2cnc(N)c(-c3cc(-c4ccc(CNC)cc4)no3)n2)ccc1=O` [Compound I-81], the Ki in experiment [1] is at most 5 nM. In addition, the “CP3 shift” value in experiment [2] worked out at 0.156 µM.
For `CCC(C)n1cc(-c2cnc(N)c(-c3cc(-c4ccc(CNC)cc4)no3)n2)ccc1=O` (stereo not drawn) [Compound I-82] the same measures were at most 5 nM and 0.079 µM.
For `CCC(CC)n1cc(-c2cnc(N)c(-c3cc(-c4ccc(CNC)cc4)no3)n2)ccc1=O` [Compound I-83] the same measures were at most 5 nM and 0.02 µM.
For the compound `CNCc1ccc(-c2cc(-c3nc(-c4ccc(=O)n(CC5CCCCO5)c4)cnc3N)on2)cc1` (stereo not drawn) [Compound I-87], the Ki in experiment [1] is at most 5 nM. Moreover, the “CP3 shift” value in experiment [2] was 0.078 µM.
Regarding `CCc1cc(-c2cnc(N)c(-c3cc(-c4ccc(CNC)cc4)no3)n2)c[nH]c1=O` [Compound I-89], in experiment [1], the Ki was at most 5 nM. Moreover, the “CP3 shift” value in experiment [2] is 0.312 µM.
As to `CNCc1ccc(-c2cc(-c3nc(-c4c[nH]c(=O)c(Cl)c4)cnc3N)on2)cc1` [Compound I-90], the Ki in experiment [1] was at most 5 nM. Further, the “CP3 shift” value in experiment [2] turned out to be 0.625 µM.
With `Nc1ncc(-c2ccc(=O)n(C3CCCC3)c2)nc1-c1cc(-c2ccc(CNC3CC3)cc2)no1` [Compound I-92], in experiment [1], the Ki was at most 5 nM. Moreover, the “CP3 shift” value in experiment [2] is 0.078 µM.
Consider `CCC(CC)n1cc(-c2cnc(N)c(-c3cc(-c4ccc(CNC5CC5)cc4)no3)n2)ccc1=O` [Compound I-93], for which the Ki in experiment [1] was at most 5 nM. The “CP3 shift” value in experiment [2] is 0.02 µM.
In the case of `CCC(CC)n1cc(-c2cnc(N)c(-c3cc(-c4cccc(C(C)N)c4)no3)n2)ccc1=O` (stereo not drawn) [Compound I-94], the Ki in experiment [1] was at most 5 nM. Further, the “CP3 shift” value in experiment [2] is 0.007 µM.
For `CNCc1ccc(-c2cc(-c3nc(-c4ccc(=O)n(CCC5CC5)c4)cnc3N)on2)cc1` [Compound I-96] the same measures were at most 5 nM and 0.078 µM.
As for `CC[C@H](C)Cn1cc(-c2cnc(N)c(-c3cc(-c4ccc(CNC)cc4)no3)n2)ccc1=O` [Compound I-97], the Ki in experiment [1] was at most 5 nM. In addition, in experiment [2], the “CP3 shift” value was 0.078 µM.
For `CNCc1ccc(-c2cc(-c3nc(-c4ccc(=O)n(C(C)C(=O)N5CCCC5)c4)cnc3N)on2)cc1` (stereo not drawn) [Compound I-102] the same measures were at most 5 nM and 0.078 µM.
`CC(N)c1cccc(-c2cc(-c3nc(-c4ccc(=O)n(CC5(C)CC5)c4)cnc3N)on2)c1` (stereo not drawn) [Compound I-105]: the Ki in experiment [1] was at most 5 nM. In experiment [2], the “CP3 shift” value is 0.02 µM.
As for `CC(N)c1cccc(-c2cc(-c3nc(-c4ccc(=O)n(CC5CC5C)c4)cnc3N)on2)c1` (stereo not drawn) [Compound I-106], the Ki in experiment [1] is at most 5 nM. The “CP3 shift” value in experiment [2] worked out at 0.039 µM.
In the same order, the values of `CNCc1ccc(-c2cc(-c3nc(-c4c[nH]c(=O)c(C5CCCC5)c4)cnc3N)on2)cc1` [Compound I-107] are at most 5 nM and 0.039 µM.
For `CCCC(CC)c1cc(-c2cnc(N)c(-c3cc(-c4ccc(CNC)cc4)no3)n2)c[nH]c1=O` (stereo not drawn) [Compound I-116] the same measures were at most 5 nM and 0.02 µM.
`Nc1ncc(-c2c[nH]c(=O)c(C3CCCC3)c2)nc1-c1cc(-c2ccc(CNC3CC3)cc2)no1` [Compound I-119]: the Ki in experiment [1] is at most 5 nM. Further, in experiment [2], the “CP3 shift” value was 0.156 µM.
On to `CCCC(CC)c1cc(-c2cnc(N)c(-c3cc(-c4ccc(CNC5CC5)cc4)no3)n2)c[nH]c1=O` (stereo not drawn) [Compound I-120], for which the Ki in experiment [1] was at most 5 nM. Moreover, the “CP3 shift” value in experiment [2] amounted to 0.078 µM.
Regarding `CNCc1ccc(-c2cc(-c3nc(-c4ccc(=O)n(CCC5CCCC5)c4)cnc3N)on2)cc1` [Compound I-122], the Ki in experiment [1] is at most 5 nM. Further, the “CP3 shift” value in experiment [2] is 0.078 µM.
In the same order, the values of `CNCc1ccc(-c2cc(-c3nc(-c4c[nH]c(=O)c(-c5ccccc5)c4)cnc3N)on2)cc1` [Compound I-123] are at most 5 nM and 0.078 µM.
For `CC1CCC(n2cc(-c3cnc(N)c(-c4cc(-c5cccc(C(C)N)c5)no4)n3)ccc2=O)C1` (stereo not drawn) [Compound I-124] the same measures were at most 5 nM and 0.039 µM.
In the same order, the values of `CNCc1ccc(-c2cc(-c3nc(-c4ccc(=O)n(C(C)(C)C#N)c4)cnc3N)on2)cc1` [Compound I-125] are at most 5 nM and 0.015 µM.
For `CCC(CC)n1cc(-c2cnc(N)c(-c3cc(-c4ccc(CNCCF)cc4)no3)n2)ccc1=O` [Compound I-126], in experiment [1], the Ki is at most 5 nM. Also, the “CP3 shift” value in experiment [2] stood at 0.625 µM.
In the same order, the values of `CCC(CC)n1cc(-c2cnc(N)c(-c3cc(-c4ccc(CNC5CC(F)(F)C5)cc4)no3)n2)ccc1=O` [Compound I-127] are at most 5 nM and 0.312 µM.
As to `CCC(CC)n1cc(-c2cnc(N)c(-c3cc(-c4ccc(CNC5CC5)cc4F)no3)n2)ccc1=O` [Compound I-128], the Ki in experiment [1] is at most 5 nM. Besides, in experiment [2], the “CP3 shift” value was found to be 0.078 µM.
In the case of `CCC(CC)n1cc(-c2cnc(N)c(-c3cc(-c4ccc(CNC)cc4F)no3)n2)ccc1=O` [Compound I-129], in experiment [1], the Ki was at most 5 nM. Moreover, the “CP3 shift” value in experiment [2] was found to be 0.02 µM.
For `CCC(CC)n1cc(-c2cnc(N)c(-c3cc(-c4ccc(CN[C@@H]5CCC(F)C5)cc4)no3)n2)ccc1=O` (stereo partly drawn) [Compound I-130] the same measures were at most 5 nM and 0.078 µM.
For `CCC(CC)n1cc(-c2cnc(N)c(-c3cc(-c4cccc(C(N)CF)c4)no3)n2)ccc1=O` (stereo not drawn) [Compound I-131] the same measures were at most 5 nM and 0.02 µM.
In the same order, the values of `CCC(CC)c1cc(-c2cnc(N)c(-c3cc(-c4ccc(CNC)cc4F)no3)n2)c[nH]c1=O` [Compound I-132] are at most 5 nM and 0.01 µM.
Regarding `CCC(N)c1cccc(-c2cc(-c3nc(-c4ccc(=O)n(C(CC)CC)c4)cnc3N)on2)c1` (stereo not drawn) [Compound I-133], the Ki in experiment [1] was at most 5 nM. For the same compound, the “CP3 shift” value in experiment [2] was 0.039 µM.
In the same order, the values of `CCC(C#N)(CC)n1cc(-c2cnc(N)c(-c3cc(-c4ccc(CNC)cc4)no3)n2)ccc1=O` [Compound I-134] are at most 5 nM and 0.02 µM.
For `CCC(C#N)(CC)n1cc(-c2cnc(N)c(-c3cc(-c4cccc([C@@H](C)N)c4)no3)n2)ccc1=O` [Compound I-138] the same measures were at most 5 nM and 0.01 µM.

The values above are taken from patent publication US9630956B2, “Compounds useful as inhibitors of ATR kinase” (Vertex Pharmaceuticals Incorporated, priority 2010, dated 2017).
